Results on six molecules are retold here after PubChem BioAssay (NCI).

Some test systems named below: HT29 colon; M19-MEL melanoma; XF 498 CNS; HL-60(TB) leukemia; HCT-15 colon; EKVX NSCLC; KM20L2 colon; NCI-H460 lung; OVCAR-4 ovarian; TK-10 renal.
What all share (assay): NCI anticancer screen, dose series, 48 h

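Method: 48-hour compound exposure of cells in 96-well plates, five concentrations, linear interpolation of endpoints. TGI marks complete inhibition of growth.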 Some results are limits rather than exact numbers.

On to `C=C1C(=O)O[C@@H]2[C@H](O)[C@@H](C)[C@@H]3C=CC(=O)[C@@]3(C)[C@@H](OC(=O)/C(C)=C/C)[C@H]12`, for which the TGI was 4.15 µM in the test on HT29 colon; 1.22 µM in the test with M19-MEL melanoma; 0.867 µM in the test on XF 498 CNS; 9.82 µM in the test with HL-60(TB) leukemia; 1.06 µM in the test with HCT-15 colon; 1.93 µM with EKVX NSCLC. The TGI with KM20L2 colon was 5.54 µM; in the test with NCI-H460 lung, 1.93 µM; in the test with OVCAR-4 ovarian, 3.05 µM.

Consider `COCN1COCN=C1NC#N`, for which the TGI in the test with HT29 colon, with M19-MEL melanoma, with XF 498 CNS, with HL-60(TB) leukemia, in the test on TK-10 renal and in the test with HCT-15 colon was greater than 100 µM each time. Further, the TGI in the test on EKVX NSCLC, in the test with KM20L2 colon, in the test with NCI-H460 lung and in the test on OVCAR-4 ovarian was greater than 100 µM in each case.

For `O=C1CC(c2ccccc2)=Nc2ccccc2N1`, the TGI with HT29 colon, with M19-MEL melanoma, in the test with XF 498 CNS, in the test on HL-60(TB) leukemia, with TK-10 renal and with HCT-15 colon was greater than 100 µM throughout. Also, the TGI in the test with EKVX NSCLC, with KM20L2 colon, with NCI-H460 lung and in the test on OVCAR-4 ovarian was greater than 100 µM throughout.

Turning to `O=C(c1ccc(Cl)cc1)N(C(=S)N1CCN(c2ccccn2)CC1)C1CCCCC1`, the TGI with HT29 colon is greater than 100 µM; in the test on M19-MEL melanoma it was greater than 100 µM; in the test with XF 498 CNS, 80.3 µM; with HL-60(TB) leukemia it was greater than 100 µM; with TK-10 renal it was greater than 100 µM; in the test on HCT-15 colon, greater than 100 µM. Moreover, the TGI in the test on KM20L2 colon, in the test with NCI-H460 lung and with OVCAR-4 ovarian was greater than 100 µM in each case.

Take `O=C(CSc1nc(-c2ccccc2)c(-c2ccccc2)[nH]1)N/N=C/c1ccc(O)cc1`: the TGI amounted to 37.1 µM in the test on HT29 colon; 51 µM in the test with M19-MEL melanoma; 99.6 µM in the test on XF 498 CNS; 62.3 µM with HL-60(TB) leukemia; 72.3 µM in the test on TK-10 renal; 84.4 µM in the test on EKVX NSCLC. Besides, the results for the TGI in the test with KM20L2 colon and in the test with NCI-H460 lung were 55.8 µM and 44.8 µM, respectively.

For the molecule `CCOC(=O)C(Cc1c[nH]c2cc([N+](=O)[O-])ccc12)NS(=O)(=O)c1ccc2ccccc2c1` (stereo unspecified), the TGI in the test with HT29 colon was found to be 31 µM; with M19-MEL melanoma, 30.9 µM; with XF 498 CNS it was 31.3 µM; in the test on HL-60(TB) leukemia it was 48.5 µM; with TK-10 renal it was 74.3 µM; in the test on HCT-15 colon, 41.2 µM. For the same molecule, the TGI with EKVX NSCLC was found to be 78.1 µM; with KM20L2 colon, 33.9 µM; with NCI-H460 lung it was 35.5 µM; with OVCAR-4 ovarian, 28 µM.
